Data from patent US8741906B2 (priority 2011, dated 2014).

Assays:
human CB2 receptors = molecular target: T1, human CB2 receptors (Homo sapiens, UniProt P34972); experiment: functional cAMP assay, human CB2; assay type: cell-based; settings: CHO cells expressing human CB2, cAMP; read-out: human CB2 EC50
T1 construct: expressed in transfected cells; host or cells: CHO cells
Procedure, shortened: (§1)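 CHO cells expressing human CB1 or CB2 were preincubated 30 min at 30 °C in Krebs Ringer bicarbonate with 1 mM IBMX, then exposed to compound 30 min at 30 °C. cAMP quantified by TR-FRET competition (Alexa700 antibody/ruthenium-cAMP) against a 10 μM–0.13 nM standard curve; EC50 derived.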

human CB1 receptors = molecular target: T2, human CB1 receptors (Homo sapiens, UniProt P21554); experiment: functional cAMP assay, human CB1; assay type: cell-based; settings: CHO cells expressing human CB1, cAMP; read-out: human CB1 EC50
T2 construct: expressed in transfected cells; host or cells: CHO cells
Procedure, shortened: as §1

T2 sequence (P21554 whole entry): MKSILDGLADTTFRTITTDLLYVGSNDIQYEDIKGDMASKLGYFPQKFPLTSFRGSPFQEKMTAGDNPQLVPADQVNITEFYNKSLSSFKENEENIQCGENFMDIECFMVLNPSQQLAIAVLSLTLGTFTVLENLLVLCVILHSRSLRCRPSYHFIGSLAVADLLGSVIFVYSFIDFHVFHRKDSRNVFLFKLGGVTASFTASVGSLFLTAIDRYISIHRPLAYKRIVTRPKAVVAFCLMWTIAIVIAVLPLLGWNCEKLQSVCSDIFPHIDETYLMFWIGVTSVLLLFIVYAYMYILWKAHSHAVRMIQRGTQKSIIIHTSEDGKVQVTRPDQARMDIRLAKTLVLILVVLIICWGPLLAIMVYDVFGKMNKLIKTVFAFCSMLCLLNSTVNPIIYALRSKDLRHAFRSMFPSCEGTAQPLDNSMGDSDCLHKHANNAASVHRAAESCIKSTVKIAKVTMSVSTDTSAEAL
T1 sequence (P34972 whole entry): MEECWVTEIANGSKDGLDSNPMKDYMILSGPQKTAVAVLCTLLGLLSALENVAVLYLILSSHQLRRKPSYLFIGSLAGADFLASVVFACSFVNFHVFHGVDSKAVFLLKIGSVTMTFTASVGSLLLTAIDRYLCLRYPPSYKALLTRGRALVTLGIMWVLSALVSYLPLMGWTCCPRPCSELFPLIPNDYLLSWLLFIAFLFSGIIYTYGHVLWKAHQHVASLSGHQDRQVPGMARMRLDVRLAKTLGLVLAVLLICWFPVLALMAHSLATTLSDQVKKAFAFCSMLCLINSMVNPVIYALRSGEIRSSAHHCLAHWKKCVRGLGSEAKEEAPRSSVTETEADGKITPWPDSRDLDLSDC

Row | Compound | EC50 (human CB2 receptors) [nM] | EC50 (human CB1 receptors) [nM]
1 | C[C@@H](c1ccccc1Cl)n1nnc2c(N3CCC(F)(F)C3)nc(C(C)(C)C)nc21 [Example 87] | 1 | 270
2 | CC(C)(C)c1nc(N2CCC(F)(F)C2)c2nnn(CC(O)c3ccccc3)c2n1 (centres unmarked) [Example 88, 2-[5-tert-Butyl-7-(3,3-difluoro-pyrrolidin-1-yl)-[1,2,3]triazolo[4,5-d]pyrimidin-3-yl]-1-phenyl-ethanol] | 0.9 | 391
3 | CC(C)(C)c1nc(N2CCC(F)(F)C2)c2nnn(Cc3cccc(F)c3Cl)c2n1 [Example 89, 5-tert-Butyl-3-(2-chloro-3-fluoro-benzyl)-7-(3,3-difluoro-pyrrolidin-1-yl)-3H-[1,2,3]triazolo[4,5-d]pyrimidine] | 0.3 | 463
4 | CC(C)(C)c1nc(N2CCC(F)(F)C2)c2nnn(Cc3cc(F)ccc3Cl)c2n1 [Example 90, 5-tert-Butyl-3-(2-chloro-5-fluoro-benzyl)-7-(3,3-difluoro-pyrrolidin-1-yl)-3H-[1,2,3]triazolo[4,5-d]pyrimidine] | 0.5 | 370
5 | CC(C)(C)c1nc(N2C[C@@H](O)C[C@@H]2CO)c2nnn(Cc3ccccc3Cl)c2n1 [Example 93, (3S,5R)-1-[5-tert-Butyl-3-(2-chloro-benzyl)-3H-[1,2,3]triazolo[4,5-d]pyrimidin-7-yl]-5-hydroxymethyl-pyrrolidin-3-ol] | 4.5 | > 10000
6 | CC(C)(C)c1nc(N2CC(F)(F)C[C@@H]2CO)c2nnn(Cc3ccccc3Cl)c2n1 [Example 94, {(R)-1-[5-tert-Butyl-3-(2-chloro-benzyl)-3H-[1,2,3]triazolo[4,5-d]pyrimidin-7-yl]-4,4-difluoro-pyrrolidin-2-yl}-methanol] | 1 | > 10000
7 | CC(C)(C)c1nc(N2CCC(F)(F)C2)c2nnn(Cc3c(Cl)ccc(F)c3Cl)c2n1 [Example 96, 5-tert-Butyl-3-(2,6-dichloro-3-fluoro-benzyl)-7-(3,3-difluoro-pyrrolidin-1-yl)-3H-[1,2,3]triazolo[4,5-c]pyrimidine] | 0.1 | 167
8 | CC(C)(C)c1nc(N2CCC(F)(F)C2)c2nnn(Cc3cccnc3Cl)c2n1 [Example 97, 5-tert-Butyl-3-(2-chloro-pyridin-3-ylmethyl)-7-(3,3-difluoro-pyrrolidin-1-yl)-3H-[1,2,3]triazolo[4,5-c]pyrimidine] | 0.1 | 62.3
9 | CC(C)(C)c1nc(N2CCC(F)(F)C2)c2nnn(Cc3ncccc3Cl)c2n1 [Example 98, 5-tert-Butyl-3-(3-chloro-pyridin-2-ylmethyl)-7-(3,3-difluoro-pyrrolidin-1-yl)-3H-[1,2,3]triazolo[4,5-d]pyrimidine] | 0.1 | 98
10 | CC(C)(C)c1nc(N2CCC(F)(F)C2)c2nnn(Cc3cc(Cl)cnc3Cl)c2n1 [Example 99, 5-tert-Butyl-3-(2,5-dichloro-pyridin-3-ylmethyl)-7-(3,3-difluoro-pyrrolidin-1-yl)-3H-[1,2,3]triazolo[4,5-d]pyrimidine] | 0.2 | 497
11 | CC(C)(C)c1nc(N2CCC(F)(F)C2)c2nnn(Cc3nc(Cl)ccc3Cl)c2n1 [Example 100, 5-tert-Butyl-3-(3,6-dichloro-pyridin-2-ylmethyl)-7-(3,3-difluoro-pyrrolidin-1-yl)-3H-[1,2,3]triazolo[4,5-d]pyrimidine] | 0.1 | 110
12 | Cc1nonc1Cn1nnc2c(N3CCC(F)(F)C3)nc(C(C)(C)C)nc21 [Example 101, 5-tert-Butyl-7-(3,3-difluoro-pyrrolidin-1-yl)-3-(4-methyl-furazan-3-ylmethyl)-3H-[1,2,3]triazolo[4,5-d]pyrimidine] | 0.1 | > 10000
13 | Cc1noc(Cn2nnc3c(N4CCC(F)(F)C4)nc(C(C)(C)C)nc32)n1 [Example 102, 5-tert-Butyl-7-(3,3-difluoro-pyrrolidin-1-yl)-3-(3-methyl-[1,2,4]oxadiazol-5-ylmethyl)-3H-[1,2,3]triazolo[4,5-d]pyrimidine] | 0.6 | > 10000
14 | CC(C)(C)c1nc(N2CCC(F)(F)C2)c2nnn(CCc3ccccc3Cl)c2n1 [Example 103, 5-tert-Butyl-3-[2-(2-chloro-phenyl)-ethyl]-7-(3,3-difluoro-pyrrolidin-1-yl)-3H-[1,2,3]triazolo[4,5-d]pyrimidine] | 0.4 | 415
15 | CC(C)(C)c1nc(N2CCC(F)(F)C2)c2nnn(CCc3cccc(Cl)c3)c2n1 [Example 104, 5-tert-Butyl-3-[2-(3-chloro-phenyl)-ethyl]-7-(3,3-difluoro-pyrrolidin-1-yl)-3H-[1,2,3]triazolo[4,5-d]pyrimidine] | 0.9 | > 10000
16 | CC(C)(C)c1nc(N2CCC(F)(F)C2)c2nnn(CCc3ccc(Cl)cc3)c2n1 [Example 105, 5-tert-Butyl-3-[2-(4-chloro-phenyl)-ethyl]-7-(3,3-difluoro-pyrrolidin-1-yl)-3H-[1,2,3]triazolo[4,5-d]pyrimidine] | 6.5 | > 10000

Row | Compound | EC50 (human CB2 receptors) [nM] | EC50 (human CB1 receptors) [nM]
17 | COc1ccc(Cn2nnc3c(N4CC[C@H](O)C4)nc(C(C)(C)C)nc32)cc1 [Example 106, (S)-1-[5-tert-Butyl-3-(4-methoxy-benzyl)-3H-[1,2,3]triazolo[4,5-d]pyrimidin-7-yl]-pyrrolidin-3-ol] | 4.8 | > 10000
18 | CC(C)(C)c1nc(N2CCC(F)(F)C2)c2nnn([C@@H]3CCOC3)c2n1 [Example 108, 5-tert-Butyl-7-(3,3-difluoro-pyrrolidin-1-yl)-3-(R)-tetrahydro-furan-3-yl-3H-[1,2,3]triazolo[4,5-d]pyrimidine] | 0.3 | > 10000
19 | CC(C)(C)c1nc(N2CCC(F)(F)C2)c2nnn([C@H]3CCOC3)c2n1 [Example 109, 5-tert-Butyl-7-(3,3-difluoro-pyrrolidin-1-yl)-3-(S)-tetrahydro-furan-3-yl-3H-[1,2,3]triazolo[4,5-d]pyrimidine] | 0.5 | > 10000
20 | CC(C)(C)c1nc(N2CCC(F)(F)C2)c2nnn(CC(=O)c3ccccc3Cl)c2n1 [Example 110, 2-[5-tert-Butyl-7-(3,3-difluoro-pyrrolidin-1-yl)-[1,2,3]triazolo[4,5-d]pyrimidin-3-yl]-1-(2-chloro-phenyl)-ethanone] | 0.2 | 250
21 | CC(C)(C)c1nc(N2CCC(F)(F)C2)c2nnn(Cc3c(F)ccc(Cl)c3Cl)c2n1 [Example 111, 5-tert-Butyl-3-(2,3-dichloro-6-fluoro-benzyl)-7-(3,3-difluoro-pyrrolidin-1-yl)-3H-[1,2,3]triazolo[4,5-d]pyrimidine] | 0.2 | 137
22 | CC(C)(C)c1nc(N2CCC(F)(F)C2)c2nnn(Cc3ccccc3S(C)(=O)=O)c2n1 [Example 112, 5-tert-Butyl-7-(3,3-difluoro-pyrrolidin-1-yl)-3-(2-methanesulfonyl-benzyl)-3H-[1,2,3]triazolo[4,5-d]pyrimidine] | 0.1 | 4.7
23 | CC(C)(C)c1nc(N2CCC(F)(F)C2)c2nnn(CCc3ccccn3)c2n1 [Example 113, 5-tert-Butyl-7-(3,3-difluoro-pyrrolidin-1-yl)-3-(2-pyridin-2-yl-ethyl)-3H-[1,2,3]triazolo[4,5-d]pyrimidine] | 0.2 | 201
24 | CC1(Cn2nnc3c(N4CCC(F)(F)C4)nc(C(C)(C)C)nc32)COC1 [Example 114, 5-tert-Butyl-7-(3,3-difluoro-pyrrolidin-1-yl)-3-(3-methyl-oxetan-3-ylmethyl)-3H-[1,2,3]triazolo[4,5-d]pyrimidine] | 0.4 | > 10000
25 | CC(C)(C)c1nc(N2CCC(F)(F)C2)c2nnn(CC(=O)c3cccc(Cl)c3)c2n1 [Example 115, 2-[5-tert-Butyl-7-(3,3-difluoro-pyrrolidin-1-yl)-[1,2,3]triazolo[4,5-d]pyrimidin-3-yl]-1-(3-chloro-phenyl)-ethanone] | 0.4 | > 10000
26 | CC(C)(C)c1nc(N2CCC(F)(F)C2)c2nnn(CC(=O)c3ccc(Cl)cc3)c2n1 [Example 116, 2-[5-tert-Butyl-7-(3,3-difluoro-pyrrolidin-1-yl)-[1,2,3]triazolo[4,5-d]pyrimidin-3-yl]-1-(4-chloro-phenyl)-ethanone] | 3 | > 10000
27 | CC(C)(C)c1nc(N2CCC(F)(F)C2)c2nnn(CC(=O)c3cccnc3)c2n1 [Example 117, 2-[5-tert-Butyl-7-(3,3-difluoro-pyrrolidin-1-yl)-[1,2,3]triazolo[4,5-d]pyrimidin-3-yl]-1-pyridin 3-yl-ethanone] | 0.2 | > 10000
28 | CC(C)(C)c1nc(N2CCC(F)(F)C2)c2nnn(CC(=O)c3ccncc3)c2n1 [Example 118, 2-[5-tert-Butyl-7-(3,3-difluoro-pyrrolidin-1-yl)-[1,2,3]triazolo[4,5-d]pyrimidin-3-yl]-1-pyridin-4-yl-ethanone] | 0.9 | > 10000
29 | CC(C)(C)c1nc(N2CCC(F)(F)C2)c2nnn(Cc3c(Cl)ccc(Cl)c3Cl)c2n1 [Example 119, 5-tert-Butyl-7-(3,3-difluoro-pyrrolidin-1-yl)-3-(2,3,6-trichloro-benzyl)-3H-[1,2,3]triazolo[4,5-d]pyrimidine] | 0.3 | 91
30 | CC(C)(C)c1nc(N2CCC(F)(F)C2)c2nnn(Cc3cccc(C(F)(F)F)c3Cl)c2n1 [Example 120, 5-tert-Butyl-3-(2-chloro-3-trifluoromethyl-benzyl)-7-(3,3-difluoro-pyrrolidin-1-yl)-3H-[1,2,3]triazolo[4,5-d]pyrimidine] | 0.7 | 181
31 | CC(C)(C)c1nc(N2CCC(F)(F)C2)c2nnn(CCc3cccnc3)c2n1 [Example 121, 5-tert-Butyl-7-(3,3-difluoro-pyrrolidin-1-yl)-3-(2-pyridin-3-yl-ethyl)-3H-[1,2,3]triazolo[4,5-d]pyrimidine] | 0.3 | > 10000
